{"source": "patent US20250163104A1", "about": "“MACROCYCLIC IMMUNOMODULATORS” (priority 2021, published 2025)", "note": "Where a SMILES comes first, the peptide text is derived from it. Bridges are numbered along the chain shown (N, C = ends). [ ]: non-standard residue; d: D form. The star is where a group is joined. Phe(3-CF3) = N[C@@H](Cc1cccc(C(F)(F)F)c1)C(=O)O; Phe(4-COOH) = N[C@@H](Cc1ccc(C(=O)O)cc1)C(=O)O; Bip = N[C@@H](Cc1ccc(-c2ccccc2)cc1)C(=O)O; 4Pal = N[C@@H](Cc1ccncc1)C(=O)O; Cha = N[C@@H](CC1CCCCC1)C(=O)O; dNle = CCCC[C@@H](N)C(=O)O; Carboxymethyl = O=C(O)C*; Orn = NCCC[C@H](N)C(=O)O; Dab = NCC[C@H](N)C(=O)O; Dap = NC[C@H](N)C(=O)O", "data": [{"molecular_target": "T1, human PD-1 / PD-L1-Ig binding on Jurkat cell line over-expressing human PD-1 (Jurkat-PD-1) (Homo sapiens, UniProt Q15116)", "T1 construct": "expressed in transfected cells; host or cells: Jurkat", "T1 sequence (Q15116 25-288)": "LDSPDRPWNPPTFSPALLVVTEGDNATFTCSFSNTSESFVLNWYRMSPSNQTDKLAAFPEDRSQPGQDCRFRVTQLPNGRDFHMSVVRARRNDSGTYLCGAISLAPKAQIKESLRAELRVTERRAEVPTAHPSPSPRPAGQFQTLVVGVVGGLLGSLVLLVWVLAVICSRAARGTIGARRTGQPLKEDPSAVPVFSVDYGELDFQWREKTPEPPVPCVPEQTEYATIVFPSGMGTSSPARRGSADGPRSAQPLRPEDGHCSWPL", "test": "Jurkat-PD-1 Cell Binding High-Content Screening Assay (CBA)", "format": "cell-based", "details": "Jurkat-PD-1 cells, PE-labeled PD-L1-Ig 20 nM final; read-out: Jurkat HPD1_PDL1 IC50", "procedure,_shortened": "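Jurkat cells over-expressing human PD-1, in DMEM/10% FCS, pre-incubated with compound 2 h at 37° C. PE-labeled human PD-L1-Ig (20 nM final) added for 1 h; cells fixed in paraformaldehyde with Hoechst 33342 nuclear stain, washed, and bound fluorescence quantified by high-content imaging.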", "units": {"IC50": "nM"}, "values": [{"smiles": "CC(C)[C@@H]1NC(=O)[C@H](Cc2c[nH]c3ccccc23)NC(=O)[C@H](CC(=O)O)NC(=O)[C@H](Cc2ccc(OCC(=O)O)cc2)NC(=O)[C@H](CN)NC(=O)CSC[C@@H](C(=O)N[C@@H](C)C(N)=O)NC(=O)[C@H]([C@@H](C)O)NC(=O)[C@H](C(C)C)NC(=O)[C@H](CC2CCCCC2)NC(=O)[C@H](CCN)NC(=O)[C@@H](Cc2ccc(O)cc2)NC(=O)[C@H](CCCN)NC(=O)[C@H](CCC(=O)O)NC(=O)[C@H](Cc2ccc(-c3ccccc3)cc2)NC1=O", "note": "[Compound 1448] ({CH2CO}-[Dap]Y(Carboxymethyl)DWV[Bip]E[Orn][dY][Dab][Cha]VTCA-NH2; thioether N-14)", "IC50": 26.9}, {"smiles": "CC(C)[C@@H]1NC(=O)[C@H](Cc2c[nH]c3ccccc23)NC(=O)[C@H](CC(=O)O)NC(=O)[C@H](Cc2ccc(C(=O)O)cc2)NC(=O)[C@H](Cc2ccc(OCC(=O)O)cc2)NC(=O)CSC[C@@H](C(=O)N[C@@H](C)C(N)=O)NC(=O)[C@H]([C@@H](C)O)NC(=O)[C@H](C(C)C)NC(=O)[C@H](CC2CCCCC2)NC(=O)[C@H](CCN)NC(=O)[C@@H](Cc2ccc(O)cc2)NC(=O)[C@H](CCCN)NC(=O)[C@H](CCC(=O)O)NC(=O)[C@H](Cc2ccc(-c3ccccc3)cc2)NC1=O", "note": "[Compound 1449] ({CH2CO}-Y(Carboxymethyl)[Phe(4-COOH)]DWV[Bip]E[Orn][dY][Dab][Cha]VTCA-NH2; thioether N-14)", "IC50": 32.9}, {"smiles": "CCCC[C@H]1NC(=O)[C@H](CCCN)NC(=O)[C@H](CCC(=O)O)NC(=O)[C@H](Cc2ccc(-c3ccccc3)cc2)NC(=O)[C@H](C(C)C)NC(=O)[C@H](Cc2c[nH]c3ccccc23)NC(=O)[C@H](CC(=O)O)NC(=O)[C@H](Cc2ccc(C(=O)O)cc2)NC(=O)[C@H](Cc2ccncc2)NC(=O)CSC[C@@H](C(=O)N[C@@H](C)C(N)=O)NC(=O)[C@H]([C@@H](C)O)NC(=O)[C@H](C(C)C)NC(=O)[C@H](CC2CCCCC2)NC(=O)[C@H](CCN)NC1=O", "note": "[Compound 1450]", "IC50": 7.6}, {"smiles": "CCCC[C@H]1NC(=O)[C@H](CCCN)NC(=O)[C@H](CCC(=O)O)NC(=O)[C@H](Cc2ccc(-c3ccccc3)cc2)NC(=O)[C@H](C(C)C)NC(=O)[C@H](Cc2c[nH]c3ccccc23)NC(=O)[C@H](CC(=O)O)NC(=O)[C@H](Cc2ccncc2)NC(=O)[C@H](Cc2ccc(OCC(=O)O)cc2)NC(=O)CSC[C@@H](C(=O)N[C@@H](C)C(N)=O)NC(=O)[C@H]([C@@H](C)O)NC(=O)[C@H](C(C)C)NC(=O)[C@H](CC2CCCCC2)NC(=O)[C@H](CCN)NC1=O", "note": "[Compound 1451] ({CH2CO}-Y(Carboxymethyl)[4Pal]DWV[Bip]E[Orn][dNle][Dab][Cha]VTCA-NH2; thioether N-14)", "IC50": 10.3}, {"smiles": "CCCC[C@H]1NC(=O)[C@H](CCCN)NC(=O)[C@H](CCC(=O)O)NC(=O)[C@H](Cc2ccc(-c3ccccc3)cc2)NC(=O)[C@H](C(C)C)NC(=O)[C@H](Cc2c[nH]c3ccccc23)NC(=O)[C@H](CC(=O)O)NC(=O)[C@H](Cc2ccncc2)NC(=O)[C@H](CN)NC(=O)CSC[C@@H](C(=O)N[C@@H](C)C(N)=O)NC(=O)[C@H]([C@@H](C)O)NC(=O)[C@H](C(C)C)NC(=O)[C@H](CC2CCCCC2)NC(=O)[C@H](CCN)NC1=O", "note": "[Compound 1452] ({CH2CO}-[Dap][4Pal]DWV[Bip]E[Orn][dNle][Dab][Cha]VTCA-NH2; thioether N-14)", "IC50": 25.2}, {"smiles": "CCCC[C@H]1NC(=O)[C@H](CCCN)NC(=O)[C@H](CCC(=O)O)NC(=O)[C@H](Cc2ccc(-c3ccccc3)cc2)NC(=O)[C@H](C(C)C)NC(=O)[C@H](Cc2c[nH]c3ccccc23)NC(=O)[C@H](CC(=O)O)NC(=O)[C@H](Cc2ccc(O)cc2)NC(=O)[C@H](CC(N)=O)NC(=O)CSC[C@@H](C(=O)N[C@@H](C)C(N)=O)NC(=O)[C@H]([C@@H](C)O)NC(=O)[C@H](C(C)C)NC(=O)[C@H](CC2CCCCC2)NC(=O)[C@H](CCN)NC1=O", "note": "[Compound 1453] ({CH2CO}-NYDWV[Bip]E[Orn][dNle][Dab][Cha]VTCA-NH2; thioether N-14)", "IC50": 9.7}, {"smiles": "CCCC[C@H]1NC(=O)[C@H](CCCN)NC(=O)[C@H](CCC(=O)O)NC(=O)[C@H](Cc2ccc(-c3ccccc3)cc2)NC(=O)[C@H](C(C)C)NC(=O)[C@H](Cc2c[nH]c3ccccc23)NC(=O)[C@H](CC(=O)O)NC(=O)[C@H](Cc2ccc(OCC(=O)O)cc2)NC(=O)[C@H](CN)NC(=O)CSC[C@@H](C(=O)N[C@@H](C)C(N)=O)NC(=O)[C@H]([C@@H](C)O)NC(=O)[C@H](C(C)C)NC(=O)[C@H](CC2CCCCC2)NC(=O)[C@H](CCN)NC1=O", "note": "[Compound 1454]", "IC50": 11.9}, {"smiles": "CCCC[C@H]1NC(=O)[C@H](CCCN)NC(=O)[C@H](CCC(=O)O)NC(=O)[C@H](Cc2ccc(-c3ccccc3)cc2)NC(=O)[C@H](C(C)C)NC(=O)[C@H](Cc2c[nH]c3ccccc23)NC(=O)[C@H](CC(=O)O)NC(=O)[C@H](Cc2ccc(C(=O)O)cc2)NC(=O)[C@H](Cc2ccc(OCC(=O)O)cc2)NC(=O)CSC[C@@H](C(=O)N[C@@H](C)C(N)=O)NC(=O)[C@H]([C@@H](C)O)NC(=O)[C@H](C(C)C)NC(=O)[C@H](CC2CCCCC2)NC(=O)[C@H](CCN)NC1=O", "note": "[Compound 1455]", "IC50": 8.3}, {"smiles": "CC(C)C[C@H]1NC(=O)[C@H](CN)NC(=O)[C@H](C(C)C)NC(=O)[C@H](Cc2ccc(-c3ccccc3)cc2)NC(=O)[C@H](C(C)C)NC(=O)[C@H](Cc2c[nH]c3ccccc23)NC(=O)[C@H](CC(=O)O)NC(=O)[C@H](Cc2ccncc2)NC(=O)[C@H](Cc2ccc(OCC(=O)O)cc2)NC(=O)CSC[C@@H](C(=O)NCC(N)=O)NC(=O)[C@H](CO)NC(=O)[C@H](C(C)C)NC(=O)[C@H](CC2CCCCC2)NC(=O)[C@H](CC(N)=O)NC1=O", "note": "[Compound 1456] ({CH2CO}-Y(Carboxymethyl)[4Pal]DWV[Bip]V[Dap][dL]N[Cha]VSCG-NH2; thioether N-14)", "IC50": 6.1}, {"smiles": "CC(C)C[C@H]1NC(=O)[C@H](CCCN)NC(=O)[C@H](CCC(=O)O)NC(=O)[C@H](Cc2ccc(-c3ccccc3)cc2)NC(=O)[C@H](C(C)C)NC(=O)[C@H](Cc2cccc(C(F)(F)F)c2)NC(=O)[C@H](CC(=O)O)NC(=O)[C@H](Cc2ccc(O)cc2)NC(=O)[C@H](CC(N)=O)NC(=O)CSC[C@@H](C(=O)N[C@@H](C)C(N)=O)NC(=O)[C@H]([C@@H](C)O)NC(=O)[C@H](C(C)C)NC(=O)[C@H](CC2CCCCC2)NC(=O)[C@H](CCN)NC1=O", "note": "[Compound 1457] ({CH2CO}-NYD[Phe(3-CF3)]V[Bip]E[Orn][dL][Dab][Cha]VTCA-NH2; thioether N-14)", "IC50": 19.8}, {"smiles": "CC(C)C[C@H]1NC(=O)[C@H](CCCN)NC(=O)[C@H](CCC(=O)O)NC(=O)[C@H](Cc2ccc(-c3ccccc3)cc2)NC(=O)[C@H](C(C)C)NC(=O)[C@H](Cc2cccc(C(F)(F)F)c2)NC(=O)[C@H](CC(=O)O)NC(=O)[C@H](Cc2ccc(OCC(=O)O)cc2)NC(=O)[C@H](CN)NC(=O)CSC[C@@H](C(=O)N[C@@H](C)C(N)=O)NC(=O)[C@H]([C@@H](C)O)NC(=O)[C@H](C(C)C)NC(=O)[C@H](CC2CCCCC2)NC(=O)[C@H](CCN)NC1=O", "note": "[Compound 1458]", "IC50": 17.9}, {"smiles": "CC(C)C[C@H]1NC(=O)[C@H](CCCN)NC(=O)[C@H](CCC(=O)O)NC(=O)[C@H](Cc2ccc(-c3ccccc3)cc2)NC(=O)[C@H](C(C)C)NC(=O)[C@H](Cc2cccc(C(F)(F)F)c2)NC(=O)[C@H](CC(=O)O)NC(=O)[C@H](Cc2ccncc2)NC(=O)[C@H](CN)NC(=O)CSC[C@@H](C(=O)N[C@@H](C)C(N)=O)NC(=O)[C@H]([C@@H](C)O)NC(=O)[C@H](C(C)C)NC(=O)[C@H](CC2CCCCC2)NC(=O)[C@H](CCN)NC1=O", "note": "[Compound 1459] ({CH2CO}-[Dap][4Pal]D[Phe(3-CF3)]V[Bip]E[Orn][dL][Dab][Cha]VTCA-NH2; thioether N-14)", "IC50": 17.7}, {"smiles": "CC(C)C[C@H]1NC(=O)[C@H](CCCN)NC(=O)[C@H](CCC(=O)O)NC(=O)[C@H](Cc2ccc(-c3ccccc3)cc2)NC(=O)[C@H](C(C)C)NC(=O)[C@H](Cc2cccc(C(F)(F)F)c2)NC(=O)[C@H](CC(=O)O)NC(=O)[C@H](Cc2ccc(OCC(=O)O)cc2)NC(=O)[C@H](Cc2ccncc2)NC(=O)CSC[C@@H](C(=O)N[C@@H](C)C(N)=O)NC(=O)[C@H]([C@@H](C)O)NC(=O)[C@H](C(C)C)NC(=O)[C@H](CC2CCCCC2)NC(=O)[C@H](CCN)NC1=O", "note": "[Compound 1460]", "IC50": 11.2}, {"smiles": "CC(C)C[C@H]1NC(=O)[C@H](CCCN)NC(=O)[C@H](CCC(=O)O)NC(=O)[C@H](Cc2ccc(-c3ccccc3)cc2)NC(=O)[C@H](C(C)C)NC(=O)[C@H](Cc2cccc(C(F)(F)F)c2)NC(=O)[C@H](CC(=O)O)NC(=O)[C@H](Cc2ccc(C(=O)O)cc2)NC(=O)[C@H](Cc2ccc(OCC(=O)O)cc2)NC(=O)CSC[C@@H](C(=O)N[C@@H](C)C(N)=O)NC(=O)[C@H]([C@@H](C)O)NC(=O)[C@H](C(C)C)NC(=O)[C@H](CC2CCCCC2)NC(=O)[C@H](CCN)NC1=O", "note": "[Compound 1461]", "IC50": 13.6}, {"smiles": "CC(C)C[C@H]1NC(=O)[C@H](CCCN)NC(=O)[C@H](CCC(=O)O)NC(=O)[C@H](Cc2ccc(-c3ccccc3)cc2)NC(=O)[C@H](C(C)C)NC(=O)[C@H](Cc2cccc(C(F)(F)F)c2)NC(=O)[C@H](CC(=O)O)NC(=O)[C@H](Cc2ccncc2)NC(=O)[C@H](Cc2ccc(OCC(=O)O)cc2)NC(=O)CSC[C@@H](C(=O)N[C@@H](C)C(N)=O)NC(=O)[C@H]([C@@H](C)O)NC(=O)[C@H](C(C)C)NC(=O)[C@H](CC2CCCCC2)NC(=O)[C@H](CCN)NC1=O", "note": "[Compound 1462] ({CH2CO}-Y(Carboxymethyl)[4Pal]D[Phe(3-CF3)]V[Bip]E[Orn][dL][Dab][Cha]VTCA-NH2; thioether N-14)", "IC50": 16.8}, {"smiles": "CC(C)C[C@H]1NC(=O)[C@H](CCCN)NC(=O)[C@H](CCC(=O)O)NC(=O)[C@H](Cc2ccc(-c3ccccc3)cc2)NC(=O)[C@H](C(C)C)NC(=O)[C@H](Cc2cccc(C(F)(F)F)c2)NC(=O)[C@H](CC(=O)O)NC(=O)[C@H](Cc2ccncc2)NC(=O)[C@H](Cc2ccccc2)NC(=O)CSC[C@@H](C(=O)N[C@@H](C)C(N)=O)NC(=O)[C@H]([C@@H](C)O)NC(=O)[C@H](C(C)C)NC(=O)[C@H](CC2CCCCC2)NC(=O)[C@H](CCN)NC1=O", "note": "[Compound 1463] ({CH2CO}-F[4Pal]D[Phe(3-CF3)]V[Bip]E[Orn][dL][Dab][Cha]VTCA-NH2; thioether N-14)", "IC50": 24.4}]}]}
